In ChEMBL document CHEMBL1201862, “PubChem BioAssay data set” (2004):
Activity calls are given as the source filed them. Rule as the data show it, for most assays here: actives have a measured EC50 and inactives only a lower limit.

Key:
[1] = tested on: Streptococcus sp. 'group A'; assay: Streptococcus pyogenes SK(-)GAS viability under kanamycin – luminescence, BacTiterGlo, confirmation, counter-screen for streptokinase expression inhibitor project, dose response (AID 1900); type: functional, organism-based
Protein RecA = molecular target: T1, Protein RecA (Mycobacterium tuberculosis, UniProt P9WHJ3); assay: Fluorescence Cell-Free Homogeneous Dose Retest to Identify Inhibitors of RecA-Intein Splicing Activity. [Related pubchem assays (depositor defined):AID2097, AID2223, AID489010, AID492950]; type: functional
T1 sequence (P9WHJ3 whole entry): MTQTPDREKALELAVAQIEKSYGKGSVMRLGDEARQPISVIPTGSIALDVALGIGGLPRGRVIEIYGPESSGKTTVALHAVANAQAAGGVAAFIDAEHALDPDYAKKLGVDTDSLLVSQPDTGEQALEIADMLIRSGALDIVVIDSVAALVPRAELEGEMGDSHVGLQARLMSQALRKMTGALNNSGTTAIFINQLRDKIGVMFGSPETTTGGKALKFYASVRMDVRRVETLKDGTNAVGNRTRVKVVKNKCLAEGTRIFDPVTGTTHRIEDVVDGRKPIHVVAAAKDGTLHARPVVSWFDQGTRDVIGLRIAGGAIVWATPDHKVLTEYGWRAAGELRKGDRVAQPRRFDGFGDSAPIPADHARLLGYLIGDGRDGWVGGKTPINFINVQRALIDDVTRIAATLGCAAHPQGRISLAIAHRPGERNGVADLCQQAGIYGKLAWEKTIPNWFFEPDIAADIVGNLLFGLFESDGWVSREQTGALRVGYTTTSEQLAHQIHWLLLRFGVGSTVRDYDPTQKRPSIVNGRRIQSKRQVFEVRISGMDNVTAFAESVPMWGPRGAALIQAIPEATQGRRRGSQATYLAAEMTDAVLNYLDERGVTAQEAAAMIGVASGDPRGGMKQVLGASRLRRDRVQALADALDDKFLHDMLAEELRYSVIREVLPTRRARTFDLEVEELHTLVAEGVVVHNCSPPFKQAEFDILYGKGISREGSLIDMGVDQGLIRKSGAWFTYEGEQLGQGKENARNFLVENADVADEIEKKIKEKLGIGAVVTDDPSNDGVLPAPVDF

Streptococcus = assay: GAS UMAA2166 growth inhibition – luminescence, BacTiterGlo, counter-screen for streptokinase expression inhibitor project, dose response (AID 1915); type: functional, organism-based;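 also: potency for reduction of bacterial viability or growth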
[2] = molecular target: E3 ubiquitin-protein ligase UHRF1 (Homo sapiens, UniProt Q96T88); assay: Counterscreen for inhibitors of 5-meCpG-binding domain protein 2 (MBD2): TRFRET-based biochemical high throughput dose response assay to identify inhibitors of binding of ubiquitin-like with PHD and ring finger domains 1 (UHRF1) to methylated oligonucleotide.
Chain of E3 ubiquitin-protein ligase UHRF1 (Q96T88 whole entry, the tested form may be a part): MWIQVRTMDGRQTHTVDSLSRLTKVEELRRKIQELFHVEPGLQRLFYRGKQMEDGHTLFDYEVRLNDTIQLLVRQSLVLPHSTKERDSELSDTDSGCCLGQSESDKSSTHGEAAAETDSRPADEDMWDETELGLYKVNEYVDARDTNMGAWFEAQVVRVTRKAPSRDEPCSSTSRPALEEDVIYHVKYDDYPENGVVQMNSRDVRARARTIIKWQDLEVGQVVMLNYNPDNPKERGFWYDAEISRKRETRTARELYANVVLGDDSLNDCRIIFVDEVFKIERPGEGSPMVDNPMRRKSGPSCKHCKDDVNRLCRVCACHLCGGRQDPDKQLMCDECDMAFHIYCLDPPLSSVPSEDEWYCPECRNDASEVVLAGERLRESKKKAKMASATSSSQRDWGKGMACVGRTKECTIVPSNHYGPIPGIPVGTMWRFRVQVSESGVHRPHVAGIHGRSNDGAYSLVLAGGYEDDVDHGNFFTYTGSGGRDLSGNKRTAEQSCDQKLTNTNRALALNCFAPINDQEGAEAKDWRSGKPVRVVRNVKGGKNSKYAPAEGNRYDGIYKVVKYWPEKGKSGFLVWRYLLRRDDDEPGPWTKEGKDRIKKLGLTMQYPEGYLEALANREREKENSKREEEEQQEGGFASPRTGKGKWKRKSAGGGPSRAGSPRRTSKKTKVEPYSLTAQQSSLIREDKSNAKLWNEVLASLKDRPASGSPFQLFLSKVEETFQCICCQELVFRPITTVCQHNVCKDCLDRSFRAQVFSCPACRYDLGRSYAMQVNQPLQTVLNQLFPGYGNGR

INS1 = assay: INS-1E survival protection against cytokine death – cell-based, luminescence, retest, dose response (AID 449756); type: functional; details: Rattus norvegicus;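 also: cell death triggered by IL-1 beta plus TNF-alpha plus IFN-gamma mixture; protective hits raise ATP signal compared with cytokine alone wells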

Question: CCCCn1c(NS(=O)(=O)c2ccccc2)c(S(=O)(=O)c2ccc(C)cc2)c2nc3ccccc3nc21 was tested. Which EC50 [1] did it give?
Answer: 3.56 µM (active)

Question: And the EC50 (Protein RecA)?
Answer: 0.0801 µM (inconclusive)

Question: And the EC50 (Streptococcus)?
Answer: 14.1 µM (active)

Question: What about the IC50 [2] of the same compound?
Answer: > 43.8 µM (inactive)

Question: And the AC50 (INS1)?
Answer: 20.5 µM (active)
